ChEMBL document CHEMBL5346972, “Discovery of HDAC6, HDAC8, and 6/8 Inhibitors and Development of Cell-Based Drug Screening Models for the Treatment of TGF-β-Induced Idiopathic Pulmonary Fibrosis” (J Med Chem, 2023)

Key:
NIH3T3 [1] = assay: Antiproliferative activity against mouse NIH3T3 cells assessed as reduction in cell viability by measuring optimal working concentration incubated for 3 days by CCK-8 assay relative to control; assay type: functional; settings: time 3 day
Histone deacetylase 1 = Histone deacetylase 1 (Homo sapiens, UniProt Q13547); assay: Inhibition of human HDAC1 expressed in baculovirus expression system in Sf9 cells using RHKKAc (379 to 382 residues) fluorogenic peptide as substrate and measured after 2 hrs by fluorescence based analysis
Sequence of Histone deacetylase 1 (Q13547 whole entry, the tested form may be a part): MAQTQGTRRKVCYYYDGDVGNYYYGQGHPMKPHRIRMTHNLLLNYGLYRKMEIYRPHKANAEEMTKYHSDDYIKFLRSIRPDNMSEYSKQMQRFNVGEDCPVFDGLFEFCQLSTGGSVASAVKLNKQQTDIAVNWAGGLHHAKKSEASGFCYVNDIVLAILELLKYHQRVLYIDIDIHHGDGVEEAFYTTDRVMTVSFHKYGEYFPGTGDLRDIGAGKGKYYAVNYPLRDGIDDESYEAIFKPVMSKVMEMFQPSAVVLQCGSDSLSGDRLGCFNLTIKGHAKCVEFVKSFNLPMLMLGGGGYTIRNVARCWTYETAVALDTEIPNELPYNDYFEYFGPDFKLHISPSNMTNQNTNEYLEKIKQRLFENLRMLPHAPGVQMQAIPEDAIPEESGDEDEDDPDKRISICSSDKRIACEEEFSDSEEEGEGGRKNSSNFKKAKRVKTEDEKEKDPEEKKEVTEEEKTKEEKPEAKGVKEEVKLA

[2] = target: T1, Protein deacetylase HDAC6 (Homo sapiens, UniProt Q9UBN7); assay: Inhibition of human HDAC6 expressed in baculovirus expression system in Sf9 cells using RHKKAc (379 to 382 residues) fluorogenic peptide as substrate and measured after 2 hrs by fluorescence based analysis
T1 sequence (Q9UBN7 whole entry): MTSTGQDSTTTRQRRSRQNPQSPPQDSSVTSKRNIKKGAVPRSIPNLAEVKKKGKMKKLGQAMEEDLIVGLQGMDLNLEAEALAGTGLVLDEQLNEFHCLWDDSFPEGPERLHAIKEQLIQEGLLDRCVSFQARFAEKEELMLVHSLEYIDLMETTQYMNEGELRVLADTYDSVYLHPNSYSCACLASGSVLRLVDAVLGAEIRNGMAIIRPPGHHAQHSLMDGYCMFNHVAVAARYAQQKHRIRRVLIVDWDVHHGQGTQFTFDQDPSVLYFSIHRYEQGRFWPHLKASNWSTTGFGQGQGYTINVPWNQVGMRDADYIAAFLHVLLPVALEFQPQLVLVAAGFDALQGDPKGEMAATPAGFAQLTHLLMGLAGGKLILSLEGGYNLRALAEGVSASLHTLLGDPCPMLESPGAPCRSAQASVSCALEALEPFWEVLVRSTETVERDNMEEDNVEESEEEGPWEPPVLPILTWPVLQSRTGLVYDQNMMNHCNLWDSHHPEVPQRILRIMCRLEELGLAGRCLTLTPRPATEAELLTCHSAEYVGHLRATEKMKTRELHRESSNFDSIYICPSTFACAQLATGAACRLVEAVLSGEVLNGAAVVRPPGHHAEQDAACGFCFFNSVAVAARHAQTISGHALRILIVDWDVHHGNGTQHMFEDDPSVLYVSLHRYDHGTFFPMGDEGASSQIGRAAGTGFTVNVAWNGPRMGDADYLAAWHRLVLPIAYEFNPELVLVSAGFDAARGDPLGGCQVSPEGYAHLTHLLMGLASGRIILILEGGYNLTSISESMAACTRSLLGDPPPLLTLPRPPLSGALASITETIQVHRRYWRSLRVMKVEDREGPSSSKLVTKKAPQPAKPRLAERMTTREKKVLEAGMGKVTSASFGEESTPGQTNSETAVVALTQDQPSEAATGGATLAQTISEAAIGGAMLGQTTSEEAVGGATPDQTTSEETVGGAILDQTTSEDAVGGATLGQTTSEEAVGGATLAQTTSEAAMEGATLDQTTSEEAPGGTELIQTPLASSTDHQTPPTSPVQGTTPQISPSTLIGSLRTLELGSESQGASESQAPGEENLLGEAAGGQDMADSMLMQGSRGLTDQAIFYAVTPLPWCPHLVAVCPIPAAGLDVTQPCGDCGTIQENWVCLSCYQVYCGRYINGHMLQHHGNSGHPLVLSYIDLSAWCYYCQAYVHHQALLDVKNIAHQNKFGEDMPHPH

NIH3T3 [3] = assay: Antiproliferative activity against mouse NIH3T3 cells assessed as reduction in cell viability incubated for 3 days by CCK-8 assay; assay type: functional, cell-based; settings: NIH3T3, 72 h
Histone deacetylase 3 = Histone deacetylase 3 (Homo sapiens, UniProt O15379); assay: Inhibition of human HDAC3 expressed in baculovirus expression system in Sf9 cells using RHKKAc (379 to 382 residues) fluorogenic peptide as substrate and measured after 2 hrs by fluorescence based analysis
Sequence of Histone deacetylase 3 (O15379 whole entry, the tested form may be a part): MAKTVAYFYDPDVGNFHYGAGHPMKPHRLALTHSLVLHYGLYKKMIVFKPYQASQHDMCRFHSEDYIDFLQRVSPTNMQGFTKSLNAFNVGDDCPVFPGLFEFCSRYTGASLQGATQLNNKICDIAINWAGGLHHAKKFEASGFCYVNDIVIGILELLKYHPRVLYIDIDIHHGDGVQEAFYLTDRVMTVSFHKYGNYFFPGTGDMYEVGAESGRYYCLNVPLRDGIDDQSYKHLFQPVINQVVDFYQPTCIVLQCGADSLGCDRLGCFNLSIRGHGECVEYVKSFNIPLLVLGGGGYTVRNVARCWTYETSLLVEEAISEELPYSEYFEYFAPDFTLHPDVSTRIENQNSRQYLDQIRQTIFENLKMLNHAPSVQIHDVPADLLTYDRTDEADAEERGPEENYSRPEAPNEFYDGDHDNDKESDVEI

[4] = Metabolic stability in human liver microsomes assessed as parent compound remaining at 200 uM preincubated for 5 mins followed by NADPH and measured at 60 mins by LC-MS/MS analysis
in vitro [5] = settings: human
Histone deacetylase 4 = Histone deacetylase 4 (Homo sapiens, UniProt P56524); assay: Inhibition of human HDAC4 expressed in baculovirus expression system in Sf9 cells using Boc-Lys(trifluoroacetyl)-AMC fluorogenic peptide as substrate and measured after 2 hrs by fluorescence based analysis
Sequence of Histone deacetylase 4 (P56524 whole entry): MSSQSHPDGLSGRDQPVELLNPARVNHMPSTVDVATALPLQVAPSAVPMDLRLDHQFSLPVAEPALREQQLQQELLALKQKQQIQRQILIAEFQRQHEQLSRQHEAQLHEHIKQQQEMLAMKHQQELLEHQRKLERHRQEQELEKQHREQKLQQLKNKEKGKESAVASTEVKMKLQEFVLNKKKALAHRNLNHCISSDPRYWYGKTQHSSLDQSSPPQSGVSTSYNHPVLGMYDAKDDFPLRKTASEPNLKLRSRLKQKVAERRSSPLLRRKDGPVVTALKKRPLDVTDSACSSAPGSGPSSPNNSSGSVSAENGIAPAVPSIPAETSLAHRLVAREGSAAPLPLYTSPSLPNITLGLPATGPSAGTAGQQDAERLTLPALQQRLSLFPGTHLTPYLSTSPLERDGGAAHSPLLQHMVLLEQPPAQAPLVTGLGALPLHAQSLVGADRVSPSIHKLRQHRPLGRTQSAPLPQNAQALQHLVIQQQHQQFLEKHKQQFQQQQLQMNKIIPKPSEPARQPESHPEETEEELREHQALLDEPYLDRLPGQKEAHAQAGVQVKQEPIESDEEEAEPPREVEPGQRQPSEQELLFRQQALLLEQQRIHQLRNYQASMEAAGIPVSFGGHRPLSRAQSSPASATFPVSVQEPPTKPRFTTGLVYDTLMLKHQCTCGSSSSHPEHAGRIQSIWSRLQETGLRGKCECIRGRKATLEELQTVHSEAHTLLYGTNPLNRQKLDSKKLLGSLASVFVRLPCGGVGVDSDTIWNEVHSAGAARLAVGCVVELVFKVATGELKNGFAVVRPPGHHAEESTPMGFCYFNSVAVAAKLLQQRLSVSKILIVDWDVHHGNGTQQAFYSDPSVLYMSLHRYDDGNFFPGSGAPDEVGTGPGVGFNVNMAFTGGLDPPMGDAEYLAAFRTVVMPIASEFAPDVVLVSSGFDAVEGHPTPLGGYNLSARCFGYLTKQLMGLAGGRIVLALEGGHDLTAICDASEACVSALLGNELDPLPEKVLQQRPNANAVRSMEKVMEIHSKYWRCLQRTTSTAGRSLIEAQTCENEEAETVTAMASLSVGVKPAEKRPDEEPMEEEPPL

in vitro [6] = settings: human; remark: listed apart in the source
in vitro [7] = settings: human, Caco-2
Description: Apparent permeability across apical to basolateral side in human Caco-2 cells at 10 uM preincubated for 10mins followed by compound addition and measured after 90 mins by LC-MS/MS analysis

Histone deacetylase 8 = target: T2, Histone deacetylase 8 (Homo sapiens, UniProt Q9BY41); assay: Inhibition of human HDAC8 expressed in baculovirus expression system in Sf9 cells using RHKAcKAc (379 to 382 residues) fluorogenic peptide as substrate and measured after 2 hrs by fluorescence based analysis
T2 sequence (Q9BY41 whole entry): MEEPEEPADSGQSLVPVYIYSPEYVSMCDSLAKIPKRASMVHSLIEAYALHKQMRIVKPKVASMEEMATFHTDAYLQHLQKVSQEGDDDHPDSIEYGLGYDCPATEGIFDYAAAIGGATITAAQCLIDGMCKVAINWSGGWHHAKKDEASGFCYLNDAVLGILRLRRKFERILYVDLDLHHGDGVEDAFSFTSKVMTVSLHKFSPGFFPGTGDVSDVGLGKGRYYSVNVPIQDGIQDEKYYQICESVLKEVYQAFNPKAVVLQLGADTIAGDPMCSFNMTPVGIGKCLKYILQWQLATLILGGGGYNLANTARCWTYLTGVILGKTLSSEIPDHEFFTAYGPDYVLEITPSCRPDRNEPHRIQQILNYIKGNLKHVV

Histone deacetylase 2 = Histone deacetylase 2 (Homo sapiens, UniProt Q92769); assay: Inhibition of human HDAC2 expressed in baculovirus expression system in Sf9 cells using RHKKAc (379 to 382 residues) fluorogenic peptide as substrate and measured after 2 hrs by fluorescence based analysis
Sequence of Histone deacetylase 2 (Q92769 whole entry, the tested form may be a part): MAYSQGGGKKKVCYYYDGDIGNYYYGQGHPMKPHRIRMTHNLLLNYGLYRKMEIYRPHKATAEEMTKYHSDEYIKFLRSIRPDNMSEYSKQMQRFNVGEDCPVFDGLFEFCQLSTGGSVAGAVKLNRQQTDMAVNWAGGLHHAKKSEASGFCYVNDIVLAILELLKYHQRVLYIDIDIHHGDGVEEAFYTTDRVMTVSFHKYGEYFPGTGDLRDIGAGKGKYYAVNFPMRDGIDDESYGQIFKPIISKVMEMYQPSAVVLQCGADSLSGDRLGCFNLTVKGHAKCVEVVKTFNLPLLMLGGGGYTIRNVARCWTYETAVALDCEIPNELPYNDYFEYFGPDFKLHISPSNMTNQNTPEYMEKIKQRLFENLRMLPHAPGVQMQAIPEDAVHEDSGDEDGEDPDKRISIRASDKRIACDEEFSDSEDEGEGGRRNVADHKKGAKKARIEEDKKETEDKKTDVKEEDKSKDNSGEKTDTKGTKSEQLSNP

[8] = Antiproliferative activity against human Pulmonary fibroblast cells assessed as reduction in cell viability incubated for 3 days by CCK-8 assay; assay type: functional, cell-based; settings: 72 h
Histone deacetylase 5 = Histone deacetylase 5 (Homo sapiens, UniProt Q9UQL6); assay: Inhibition of human HDAC5 expressed in baculovirus expression system in Sf9 cells using Boc-Lys(trifluoroacetyl)-AMC fluorogenic peptide as substrate and measured after 2 hrs by fluorescence based analysis
Sequence of Histone deacetylase 5 (Q9UQL6 whole entry): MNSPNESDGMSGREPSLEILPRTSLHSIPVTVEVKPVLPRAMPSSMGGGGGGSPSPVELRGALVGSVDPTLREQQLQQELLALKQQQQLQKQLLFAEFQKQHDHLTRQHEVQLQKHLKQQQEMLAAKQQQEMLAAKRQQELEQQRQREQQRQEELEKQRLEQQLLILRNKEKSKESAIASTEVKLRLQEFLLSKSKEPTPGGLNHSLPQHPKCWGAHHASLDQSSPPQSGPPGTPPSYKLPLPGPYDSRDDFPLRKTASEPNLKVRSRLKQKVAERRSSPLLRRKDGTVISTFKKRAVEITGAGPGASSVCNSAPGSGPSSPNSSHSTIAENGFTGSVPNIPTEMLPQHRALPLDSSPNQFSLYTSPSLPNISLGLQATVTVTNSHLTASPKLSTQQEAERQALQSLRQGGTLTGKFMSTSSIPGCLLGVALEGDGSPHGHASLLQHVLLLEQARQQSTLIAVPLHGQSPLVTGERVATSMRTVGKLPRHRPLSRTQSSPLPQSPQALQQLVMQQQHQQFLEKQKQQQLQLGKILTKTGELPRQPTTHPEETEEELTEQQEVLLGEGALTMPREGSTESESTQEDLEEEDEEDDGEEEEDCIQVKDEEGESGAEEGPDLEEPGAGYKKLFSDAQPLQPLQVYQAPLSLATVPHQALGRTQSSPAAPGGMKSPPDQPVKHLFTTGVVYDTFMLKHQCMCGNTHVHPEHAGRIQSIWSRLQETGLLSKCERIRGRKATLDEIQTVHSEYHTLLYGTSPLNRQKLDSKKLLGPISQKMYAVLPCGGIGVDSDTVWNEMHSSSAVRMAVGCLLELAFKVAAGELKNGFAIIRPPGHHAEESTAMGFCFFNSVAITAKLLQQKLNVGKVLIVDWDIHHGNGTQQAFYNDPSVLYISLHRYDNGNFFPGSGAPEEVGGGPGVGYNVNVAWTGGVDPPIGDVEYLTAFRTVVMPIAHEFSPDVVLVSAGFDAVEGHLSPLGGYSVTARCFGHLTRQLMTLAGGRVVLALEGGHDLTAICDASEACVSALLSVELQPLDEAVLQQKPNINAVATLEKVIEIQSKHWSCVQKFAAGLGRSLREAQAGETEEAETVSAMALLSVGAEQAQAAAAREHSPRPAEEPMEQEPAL

Histone deacetylase 11 = target: T3, Histone deacetylase 11 (Homo sapiens, UniProt Q96DB2); assay: Inhibition of human HDAC11 expressed in baculovirus expression system in Sf9 cells using Boc-Lys(trifluoroacetyl)-AMC fluorogenic peptide as substrate and measured after 2 hrs by fluorescence based analysis
T3 sequence (Q96DB2 whole entry): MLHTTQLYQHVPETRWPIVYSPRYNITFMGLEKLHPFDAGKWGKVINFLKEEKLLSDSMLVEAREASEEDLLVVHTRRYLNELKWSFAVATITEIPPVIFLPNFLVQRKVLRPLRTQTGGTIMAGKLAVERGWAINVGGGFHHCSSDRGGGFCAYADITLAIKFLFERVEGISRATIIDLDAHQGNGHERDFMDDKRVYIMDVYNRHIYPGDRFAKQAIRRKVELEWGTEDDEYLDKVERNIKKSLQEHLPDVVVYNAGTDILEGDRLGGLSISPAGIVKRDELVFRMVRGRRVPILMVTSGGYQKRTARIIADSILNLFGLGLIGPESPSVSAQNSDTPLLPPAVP

[9] = Antiproliferative activity against human Pulmonary fibroblast cells assessed as reduction in cell viability by measuring optimal working concentration incubated for 3 days by CCK-8 assay; assay type: functional; settings: time 3 day
Histone deacetylase 9 = Histone deacetylase 9 (Homo sapiens, UniProt Q9UKV0); assay: Inhibition of human HDAC9 expressed in baculovirus expression system in Sf9 cells using Boc-Lys(trifluoroacetyl)-AMC fluorogenic peptide as substrate and measured after 2 hrs by fluorescence based analysis
Sequence of Histone deacetylase 9 (Q9UKV0 whole entry): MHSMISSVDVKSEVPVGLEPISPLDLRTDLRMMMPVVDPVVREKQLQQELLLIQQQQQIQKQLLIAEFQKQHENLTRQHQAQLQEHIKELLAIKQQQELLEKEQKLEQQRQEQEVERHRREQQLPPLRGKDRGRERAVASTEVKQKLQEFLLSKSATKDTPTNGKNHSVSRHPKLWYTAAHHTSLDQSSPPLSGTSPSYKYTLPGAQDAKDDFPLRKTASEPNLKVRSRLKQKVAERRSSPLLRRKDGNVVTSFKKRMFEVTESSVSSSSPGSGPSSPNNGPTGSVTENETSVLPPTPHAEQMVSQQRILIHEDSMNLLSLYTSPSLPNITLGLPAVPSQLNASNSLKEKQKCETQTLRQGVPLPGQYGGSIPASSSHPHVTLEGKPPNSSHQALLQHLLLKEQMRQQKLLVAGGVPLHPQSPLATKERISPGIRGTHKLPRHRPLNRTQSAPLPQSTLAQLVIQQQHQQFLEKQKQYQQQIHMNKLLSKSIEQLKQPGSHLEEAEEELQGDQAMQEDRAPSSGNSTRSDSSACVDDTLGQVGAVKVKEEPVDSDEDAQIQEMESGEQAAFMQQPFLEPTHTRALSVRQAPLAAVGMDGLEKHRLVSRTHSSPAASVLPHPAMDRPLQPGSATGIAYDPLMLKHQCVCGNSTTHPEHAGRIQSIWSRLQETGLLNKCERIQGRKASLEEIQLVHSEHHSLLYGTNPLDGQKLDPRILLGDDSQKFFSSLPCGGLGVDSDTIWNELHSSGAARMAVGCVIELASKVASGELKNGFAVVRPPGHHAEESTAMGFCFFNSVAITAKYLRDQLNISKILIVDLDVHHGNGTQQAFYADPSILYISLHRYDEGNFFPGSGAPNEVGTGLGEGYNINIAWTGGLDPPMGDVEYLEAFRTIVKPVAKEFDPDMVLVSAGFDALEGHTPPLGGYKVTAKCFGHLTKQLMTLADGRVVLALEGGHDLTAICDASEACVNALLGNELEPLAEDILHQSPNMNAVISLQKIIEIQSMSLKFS

Row | Compound | MEC (NIH3T3 [1]) [µM] | IC50 (Histone deacetylase 1) [µM] | IC50 [2] [µM] | IC50 (NIH3T3 [3]) [µM] | IC50 (Histone deacetylase 8) [µM] | other results
1 | O=C(CCn1c(=O)n(Cc2ccccc2)c(=O)c2ccc(Cl)cc21)NO | 2.9 | > 10 | 0.047 | 9.12 |  | 
2 | O=C(NO)c1ccc(Cn2c(=O)n(CCc3ccccc3)c(=O)c3ccc(C(F)(F)F)cc32)cc1 | 1.24 |  |  | 4.23 |  | 
3 | O=C(NO)c1ccc(Cn2c(=O)[nH]c(=O)c3cccc(Cl)c32)cc1 | 9.7 | 0.19 | 0.01 | 18.6 | 0.137 | IC50 (Histone deacetylase 3): 0.302 µM; remaining at 1 h, 200 µM ([4]; liver microsomes): 100%; CLint scaled at 1 h, 200 µM (in vitro [5]; liver microsomes): < 6.1 mL/min/kg; IC50 (Histone deacetylase 4): 0.516 µM; half-life at 1 h, 200 µM (in vitro [6]; liver microsomes): > 3.11 h; Papp A→B at 1.5 h, 10 µM (in vitro [7]): 1.4 ×10⁻⁶ cm/s; IC50 (Histone deacetylase 2): 0.378 µM; IC50 [8]: 8.82 µM; IC50 (Histone deacetylase 5): 0.211 µM; IC50 (Histone deacetylase 11): 0.812 µM; MEC [9]: 10 µM; IC50 (Histone deacetylase 9): 0.431 µM
4 | O=C(NO)c1ccc(Cn2c(=O)n(CCc3ccccc3)c(=O)c3cc(Cl)ccc32)cc1 | 0.81 |  |  | 3.79 |  | 
5 | O=C(NO)c1ccc(Cn2c(=O)[nH]c(=O)c3ccc(F)cc32)cc1 | 2.7 | 0.423 | 0.0016 | 15.3 | 0.154 | 
6 | O=C(NO)c1ccc(Cn2c(=O)n(CCc3ccccc3)c(=O)c3ccccc32)cc1 | 2.88 | > 10 |  | 5.1 |  | 
7 | N#Cc1ccc2c(=O)n(CCc3ccccc3)c(=O)n(Cc3ccc(C(=O)NO)cc3)c2c1 | 4.5 |  |  | 735 | 0.13 | 
8 | COc1ccc2c(c1)[C@]13CCCC[C@@H]1[C@H](C2)N(C)CC3 [DEXTROMETHORPHAN] |  |  |  |  |  | remaining at 1 h, 200 µM ([4]; liver microsomes): 30.4%; CLint scaled at 1 h, 200 µM (in vitro [5]; liver microsomes): 14.3 mL/min/kg; half-life at 1 h, 200 µM (in vitro [6]; liver microsomes): 0.582 h
9 | O=C(NO)c1ccc(Cn2c(=O)n(CCc3ccccc3)c(=O)c3ccccc32)c(F)c1 | 0.73 | 14.5 | 0.108 | 10.1 | 0.255 | 
10 | O=C(NO)c1ccc(Cn2c(=O)n(CCc3ccccc3O)c(=O)c3ccccc32)cc1 | 4.94 |  |  | 9.95 |  | 
11 | Cc1nc2cc(/C=C/C(=O)NO)ccc2c(=O)n1-c1ccccc1 | 20 |  | 0.062 | > 40 | 1.55 | IC50 (Histone deacetylase 3): 1.59 µM; remaining at 1 h, 200 µM ([4]; microsomes): 89.6%; CLint scaled at 1 h, 200 µM (in vitro [5]; microsomes): < 6.1 mL/min/kg; IC50 (Histone deacetylase 4): 30 µM; half-life at 1 h, 200 µM (in vitro [6]; microsomes): > 3.11 h; IC50 (Histone deacetylase 2): 7.38 µM; IC50 [8]: > 40 µM; IC50 (Histone deacetylase 5): 8.41 µM; IC50 (Histone deacetylase 11): 4.7 µM; MEC [9]: 10 µM; IC50 (Histone deacetylase 9): 30 µM
12 | O=C(NO)c1ccc(Cn2c(=O)[nH]c(=O)c3cc(F)ccc32)cc1 |  | 1.27 | 0.006 | 4.76 | 0.222 | 
13 | O=C(CS)Nc1ccc(Cn2c(=O)[nH]c(=O)c3cccc(Cl)c32)cc1 |  |  | 0.0053 |  |  | 
14 | CCc1nc2ccc(/C=C/CC(=O)NO)cc2c(=O)n1-c1ccccc1 | 10 | 15.9 | 0.285 | > 40 | 3.69 | 
15 | O=C(NO)c1ccc(Cn2c(=O)[nH]c(=O)c3c(Cl)cccc32)cc1 | 12 | 3.32 | 0.013 | 23.3 | 0.281 | 
16 | O=C(NO)c1cccc(Cn2c(=O)[nH]c(=O)c3cccc(Cl)c32)c1 | 10 | > 30 | 5.95 | > 40 | 0.966 | 
17 | CCc1nc2c(Cc3ccc(C(=O)NO)cc3)cccc2c(=O)n1CCc1ccccc1 | 0.4 |  |  | 338 |  | 
18 | O=C(NO)c1ccc(/C=C/c2nc3ccccc3c(=O)[nH]2)cc1 | 2.27 | 16.2 | 0.028 | 5.02 | 0.325 | remaining at 1 h, 200 µM ([4]; liver microsomes): 58.1%; CLint scaled at 1 h, 200 µM (in vitro [5]; liver microsomes): 10.5 mL/min/kg; half-life at 1 h, 200 µM (in vitro [6]; liver microsomes): 1.26 h; Papp A→B at 1.5 h, 10 µM (in vitro [7]): 0.3 ×10⁻⁶ cm/s; IC50 [8]: > 40 µM; MEC [9]: 10 µM
19 | O=C(NO)c1ccc(-c2nc3ccccc3c(=O)[nH]2)cc1 | 10 | > 30 | 0.317 | > 40 | 1.62 | IC50 [8]: > 40 µM; MEC [9]: 5 µM
20 | Cn1c(CCC(=O)NO)nc2ccccc2c1=O |  | > 30 | 22 |  | 10.4 | 
21 | O=C(CCn1c(=O)n(CCc2ccccc2)c(=O)c2ccccc21)NO | 1.14 | > 10 | 0.798 | 7.14 | 0.454 | 
22 | O=C(NO)c1ccc(Cn2c(=O)[nH]c(=O)c3ccc(C(F)(F)F)cc32)cc1 | 4.72 | 5.18 | 0.058 | 16 | 0.302 | 
23 | O=C(NO)c1ccc(Cn2c(=O)[nH]c(=O)c3cc(Br)ccc32)cc1 | 6.05 | 4.28 | 0.018 | 757 | 0.371 | 
24 | Cc1nc2ccc(/C=C/CC(=O)NO)cc2c(=O)n1-c1ccccc1 | 10 | 17.3 | 0.168 | > 40 | 3.73 | remaining at 1 h, 200 µM ([4]; microsomes): 84.3%; CLint scaled at 1 h, 200 µM (in vitro [5]; microsomes): < 6.1 mL/min/kg; half-life at 1 h, 200 µM (in vitro [6]; microsomes): > 3.11 h; IC50 [8]: > 40 µM; MEC [9]: 10 µM
25 | COc1ccccc1CCn1c(=O)c2ccccc2n(Cc2ccc(C(=O)NO)cc2)c1=O |  |  |  | 9.55 |  | 
